In the supplement of paper PMC10307832:

Key:
Assay in all cases: relative viability (nuclei count vs DMSO), 5 days (fraction); higher = more cells survive
[1] = tested on: ABC-1
Procedure, shortened: (§1)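 Relative viability was taken as the ratio of nuclei in treated wells to nuclei in vehicle wells. Lung cancer cell lines in 1536-well plates received compounds by pin tool one day after seeding, either one drug alone or a fixed anchor-drug dose plus five library-drug doses (not always all listed) in √10 steps. Nuclei were counted on 4× images after 5 days of treatment, and values are medians of duplicate plates.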

[2] = tested on: COR-L23
Procedure, shortened: as §1

[3] = tested on: ChaGo-K-1
Procedure, shortened: as §1

[4] = tested on: EMC-BAC-2
Procedure, shortened: as §1

[5] = tested on: HARA
Procedure, shortened: as §1

[6] = tested on: HCC-15
Procedure, shortened: as §1

[7] = tested on: HCC-366
Procedure, shortened: as §1

[8] = tested on: HCC-78
Procedure, shortened: as §1

[9] = tested on: HOP-62
Procedure, shortened: as §1

[10] = tested on: LC-2-ad
Procedure, shortened: as §1

[11] = tested on: NCI-H1395
Procedure, shortened: as §1

[12] = tested on: NCI-H1793
Procedure, shortened: as §1

[13] = tested on: NCI-H1944
Procedure, shortened: as §1

[14] = tested on: NCI-H1993
Procedure, shortened: as §1

[15] = tested on: NCI-H2023
Procedure, shortened: as §1

[16] = tested on: NCI-H2126
Procedure, shortened: as §1

[17] = tested on: NCI-H2228
Procedure, shortened: as §1

[18] = tested on: NCI-H23
Procedure, shortened: as §1

[19] = tested on: NCI-H2405
Procedure, shortened: as §1

[20] = tested on: NCI-H358
Procedure, shortened: as §1

[21] = tested on: NCI-H838
Procedure, shortened: as §1

[22] = tested on: SK-LU-1
Procedure, shortened: as §1

SMILES: Nc1ccn([C@@H]2O[C@H](CO)[C@@H](O)[C@@H]2O)c(=O)n1 [Cytarabine] + CS(=O)(=O)N1CCN(Cc2cc3nc(-c4cccc5[nH]ncc45)nc(N4CCOCC4)c3s2)CC1 [Pictilisib] (partner 1 µM)
- relative viability ([1]; first compound 0.005 µM): 0.939
- relative viability ([1]; first compound 0.01581 µM): 0.679
- relative viability ([1]; first compound 0.05 µM): 0.698
- relative viability ([1]; first compound 0.1581 µM): 0.635
- relative viability ([1]; first compound 0.5 µM): 0.325
- relative viability ([2]; first compound 0.005 µM): 0.637
- relative viability ([2]; first compound 0.01581 µM): 0.51
- relative viability ([2]; first compound 0.05 µM): 0.532
- relative viability ([2]; first compound 0.1581 µM): 0.171
- relative viability ([2]; first compound 0.5 µM): 0.112
- relative viability ([3]; first compound 0.005 µM): 0.583
- relative viability ([3]; first compound 0.01581 µM): 0.459
- relative viability ([3]; first compound 0.05 µM): 0.284
- relative viability ([3]; first compound 0.1581 µM): 0.365
- relative viability ([3]; first compound 0.5 µM): 0.401
- relative viability ([4]; first compound 0.005 µM): 0.42
- relative viability ([4]; first compound 0.01581 µM): 0.494
- relative viability ([4]; first compound 0.05 µM): 0.366
- relative viability ([4]; first compound 0.1581 µM): 0.246
- relative viability ([4]; first compound 0.5 µM): 0.165
- relative viability ([5]; first compound 0.005 µM): 0.316
- relative viability ([5]; first compound 0.01581 µM): 0.368
- relative viability ([5]; first compound 0.05 µM): 0.163
- relative viability ([5]; first compound 0.1581 µM): 0.106
- relative viability ([5]; first compound 0.5 µM): 0.117
- relative viability ([6]; first compound 0.005 µM): 0.709
- relative viability ([6]; first compound 0.01581 µM): 0.704
- relative viability ([6]; first compound 0.05 µM): 0.672
- relative viability ([6]; first compound 0.1581 µM): 0.504
- relative viability ([6]; first compound 0.5 µM): 0.453
- relative viability ([7]; first compound 0.005 µM): 0.134
- relative viability ([7]; first compound 0.01581 µM): 0.129
- relative viability ([7]; first compound 0.05 µM): 0.0867
- relative viability ([7]; first compound 0.1581 µM): 0.0754
- relative viability ([7]; first compound 0.5 µM): 0.0688
- relative viability ([8]; first compound 0.005 µM): 0.234
- relative viability ([8]; first compound 0.01581 µM): 0.196
- relative viability ([8]; first compound 0.05 µM): 0.139
- relative viability ([8]; first compound 0.1581 µM): 0.141
- relative viability ([8]; first compound 0.5 µM): 0.128
- relative viability ([9]; first compound 0.005 µM): 0.741
- relative viability ([9]; first compound 0.01581 µM): 0.469
- relative viability ([9]; first compound 0.05 µM): 0.315
- relative viability ([9]; first compound 0.1581 µM): 0.118
- relative viability ([9]; first compound 0.5 µM): 0.0794
- relative viability ([10]; first compound 0.005 µM): 0.402
- relative viability ([10]; first compound 0.01581 µM): 0.419
- relative viability ([10]; first compound 0.05 µM): 0.361
- relative viability ([10]; first compound 0.1581 µM): 0.212
- relative viability ([10]; first compound 0.5 µM): 0.16
- relative viability ([11]; first compound 0.005 µM): 0.616
- relative viability ([11]; first compound 0.01581 µM): 0.564
- relative viability ([11]; first compound 0.05 µM): 0.391
- relative viability ([11]; first compound 0.1581 µM): 0.365
- relative viability ([11]; first compound 0.5 µM): 0.316
- relative viability ([12]; first compound 0.005 µM): 0.312
- relative viability ([12]; first compound 0.01581 µM): 0.29
- relative viability ([12]; first compound 0.05 µM): 0.383
- relative viability ([12]; first compound 0.1581 µM): 0.307
- relative viability ([12]; first compound 0.5 µM): 0.194
- relative viability ([13]; first compound 0.005 µM): 0.29
- relative viability ([13]; first compound 0.01581 µM): 0.267
- relative viability ([13]; first compound 0.05 µM): 0.236
- relative viability ([13]; first compound 0.1581 µM): 0.201
- relative viability ([13]; first compound 0.5 µM): 0.189
- relative viability ([14]; first compound 0.005 µM): 0.84
- relative viability ([14]; first compound 0.01581 µM): 0.815
- relative viability ([14]; first compound 0.05 µM): 0.765
- relative viability ([14]; first compound 0.1581 µM): 0.712
- relative viability ([14]; first compound 0.5 µM): 0.525
- relative viability ([15]; first compound 0.005 µM): 0.193
- relative viability ([15]; first compound 0.01581 µM): 0.137
- relative viability ([15]; first compound 0.05 µM): 0.112
- relative viability ([15]; first compound 0.1581 µM): 0.0708
- relative viability ([15]; first compound 0.5 µM): 0.0698
- relative viability ([16]; first compound 0.005 µM): 0.441
- relative viability ([16]; first compound 0.01581 µM): 0.432
- relative viability ([16]; first compound 0.05 µM): 0.382
- relative viability ([16]; first compound 0.1581 µM): 0.312
- relative viability ([16]; first compound 0.5 µM): 0.29
- relative viability ([17]; first compound 0.005 µM): 0.29
- relative viability ([17]; first compound 0.01581 µM): 0.188
- relative viability ([17]; first compound 0.05 µM): 0.399
- relative viability ([17]; first compound 0.1581 µM): 0.109
- relative viability ([17]; first compound 0.5 µM): 0.146
- relative viability ([18]; first compound 0.005 µM): 0.527
- relative viability ([18]; first compound 0.01581 µM): 0.346
- relative viability ([18]; first compound 0.05 µM): 0.327
- relative viability ([18]; first compound 0.1581 µM): 0.156
- relative viability ([18]; first compound 0.5 µM): 0.138
- relative viability ([19]; first compound 0.005 µM): 0.398
- relative viability ([19]; first compound 0.01581 µM): 0.334
- relative viability ([19]; first compound 0.05 µM): 0.319
- relative viability ([19]; first compound 0.1581 µM): 0.301
- relative viability ([19]; first compound 0.5 µM): 0.229
- relative viability ([20]; first compound 0.005 µM): 0.318
- relative viability ([20]; first compound 0.01581 µM): 0.288
- relative viability ([20]; first compound 0.05 µM): 0.298
- relative viability ([20]; first compound 0.1581 µM): 0.179
- relative viability ([20]; first compound 0.5 µM): 0.155
- relative viability ([21]; first compound 0.005 µM): 0.334
- relative viability ([21]; first compound 0.01581 µM): 0.495
- relative viability ([21]; first compound 0.05 µM): 0.435
- relative viability ([21]; first compound 0.1581 µM): 0.257
- relative viability ([21]; first compound 0.5 µM): 0.243
- relative viability ([22]; first compound 0.005 µM): 0.519
- relative viability ([22]; first compound 0.01581 µM): 0.515
- relative viability ([22]; first compound 0.05 µM): 0.333
- relative viability ([22]; first compound 0.1581 µM): 0.216
- relative viability ([22]; first compound 0.5 µM): 0.216
